Measured values reported in patent US5312900A, “23K protein with binding specificity for queuine” (La Jolla Cancer Research Foundation, priority 1991, dated 1994).
Entries after “also recorded” stand apart in the source; their conditions may differ.

Tests used:
[1] = tested on: ^125 I-Queb (23K protein); experiment: Binding of ^125 I-Queb to ligand-sepharose; design: species or system bovine; details: for Unbound CPM: 1×10^6 cpm ^125 I-Queb incubated 2 hours with ligand-sepharose, CPM in supernatant and three PBS/Ca++; for Unbound CPM / Bound CPM: Mg++ washes, n = 3; for Bound CPM: CPM associated with sepharose after removal of supernatant and three PBS/Ca++, ± S.D.; for % Bound: share of available ^125 I-Queb bound to ligand-sepharose; for Binding of ^125 I-Queb to ligand-sepharose and its elution (in words): successive elution with 20mM EDTA, 1M NaCl, 1M urea, 8M urea
Protocol: Queb was isolated from the 15% SDS-PA gels by electroelution, and labelled with ^125 I according to Example IV. […] Equal quantities (1×10^6 cpm, 50 μl ) of ^125 I-Queb were incubated for 2 hours with equal aliquots (50 μl ) of ligand-sepharose. The buffer was then isolated and the sepharose was washed with PBS until less than 1×10^4 cpm were measured in the eluent.

[2] = tested on: Queb; experiment: Affinity chromatography of BAF proteins on ligand-sepharose with stepwise elution; format: binding, bovine; details: third trimester BAF; elution with 20 mM EDTA, 1M NaCl, 1M urea, 8M urea
Excerpt: The isolation of Queuine binding factors was completed using affinity chromatography. CNBr-activated sepharose 4B (Pharmacia) was coupled with Queuine, guanosine or glycine using the manufacturers described procedure. The coupling ratio of Queuine to the amount of dry sepharose was 2.7 μmole to 0.1 g and the ratio of guanosine to sepharose was 1.3 μmole to 0.1 g. The procedure used targeted coupling of Queuine and guanosine at the 2-amino group of the purine ring.
The affinity-sepharose was equilibrated with phosphate buffered saline (PBS) containing 2 mM CaCl2, and MgCl2 contained in a glass pipette. The sample was allowed to flow through the column containing the affinity-sepharose, and the bound material was eluted with a successive series of PBS buffers (pH 7.5) containing: 20 mM EDTA, 1M NaCl, 1M urea, 8M urea. Once eluted, the protein was precipitated with 95% ethanol containing 0.5M potassium acetate, washed twice in 95% ethanol, and then solubilized in SDS-PAGE sample buffer, 0.25M tris-HCl, pH 6.8; 10% glycerol; 2% SDS; 0.0025% bromophenol blue.
Third trimester BAF (50 ml) was passed over a 0.4 ml Queuine-sepharose column. The column was then washed with PBS containing 2mM of CaCl2 and MgCl2 until the eluent contained<0.01 OD (280 nm). […] Eluent fractions (200 μl ) were collected and spectrophotometrically monitored (280 nm). […]

[3] = tested on: HL-60 cells; experiment: Differentiation response of HL-60 cells; format: cell-based; details: TPA-induced differentiation where stated
[4] = tested on: HL 60 cells (ATCC No. CCL 240); experiment: Cell growth of HL 60 cells; format: cell-based
[5] = tested on: ^125 I-Queb; experiment: Effect of TPA on ^125 I-Queb binding to Queuine-sepharose; design: species or system bovine; details: TPA at 50% of the concentration of Queuine bound to sepharose
Protocol: TPA, at 50% of the concentration of the Queuine bound to sepharose, was evaluated for its ability to antagonize ^125 I-Queb binding to Queuine-sepharose. FIG. 3A illustrates the ^125 I-Queb binding without TPA and FIG. 3B illustrates the results with TPA. […] However, the elution patterns of ^125 I-Queb from the Queuine-sepharose was altered in the TPA samples.

SMILES	Unbound CPM [1]	Bound CPM [1]	% Bound [1] [%]	Binding of ^125 I-Queb to ligand-sepharose and its elution (in words) [1]	Binding of Queb from BAF to ligand-sepharose column [2]	Binding of ^125 I-Queb to ligand-sepharose and its elution (in words) ([1]; listed as guanine)	Effect on differentiation response (in words) [3]	Effect on cell growth (in words) [4]	IC50 ([4]; Homo sapiens, read-out: ID50, inhibition of cell growth) [µM]	Effect on amount of ^125 I-Queb bound to Queuine-sepharose (in words) [5]	Effect on elution of ^125 I-Queb from Queuine-sepharose (in words) ([5]; without TPA 8 M urea needed)
NCC(=O)O [Glycine]	802,682 CPM	70,500 ± 8,800 CPM	8.08	minimal amount	–	–	–	–	–	–	–
Nc1nc2c(ncn2[C@@H]2O[C@H](CO)[C@@H](O)[C@H]2O)c(=O)[nH]1 [Guanosine]	843,385 CPM	104,740 ± 12,885 CPM	11.05	No ^125 I-Queb was found eluted	no presence of Queb that bound with high affinity; also recorded: did not bind	minimal amount	–	–	–	–	–
Nc1nc2[nH]cc(CN[C@H]3C=C[C@H](O)[C@@H]3O)c2c(=O)[nH]1 [Queuine]	404,060 CPM	851,350 ± 91,830 CPM	–	only eluted by 8M urea	eluted only under stringent elution conditions of 8 M urea; also recorded: high binding affinity	–	modulate the ability of cells to respond to differentiation signals; also recorded: markedly sensitized HL-60 cells to a TPA-induced differentiation response; also recorded: inhibit TPA when used concurrently	both stimulate and inhibit	7.8	–	–
CCCCCCCCCCCCCC(=O)O[C@@H]1[C@@H](C)[C@@]2(O)[C@@H](C=C(CO)C[C@]3(O)C(=O)C(C)=C[C@@H]23)[C@@H]2C(C)(C)[C@]12OC(C)=O [TPA, 12-O-tetradecanoyl-phorbol-13-acetate]	–	–	–	–	–	–	–	–	–	did not quantitatively alter	20 mM EDTA was able to elute and eluted under milder conditions of 20 mM EDTA
